Key:
[1] = Competitive inhibition of MDCK infected Influenza A virus A/Taiwan/3446/2002(H3N2) neuraminidase using MU-NANA as substrate preincubated for 30 mins followed by substrate addition measured after 1 hr by spectrofluorometric method
[2] = molecular target: Neuraminidase (Influenza A virus (strain A/Wilson-Smith/1933 H1N1) (Influenza A virus(strain A/WS/1933 H1N1)), UniProt P03470); assay: Competitive inhibition of MDCK infected Influenza A virus A/WSN/33(H1N1) neuraminidase using MU-NANA as substrate preincubated for 30 mins followed by substrate addition measured after 1 hr by spectrofluorometric method; type: cell-based, Influenza A virus (A/WSN/1933(H1N1))
Neuraminidase (Influenza A virus (strain A/Wilson-Smith/1933 H1N1) (Influenza A virus(strain A/WS/1933 H1N1)), UniProt P03470), sequence (P03470 whole entry): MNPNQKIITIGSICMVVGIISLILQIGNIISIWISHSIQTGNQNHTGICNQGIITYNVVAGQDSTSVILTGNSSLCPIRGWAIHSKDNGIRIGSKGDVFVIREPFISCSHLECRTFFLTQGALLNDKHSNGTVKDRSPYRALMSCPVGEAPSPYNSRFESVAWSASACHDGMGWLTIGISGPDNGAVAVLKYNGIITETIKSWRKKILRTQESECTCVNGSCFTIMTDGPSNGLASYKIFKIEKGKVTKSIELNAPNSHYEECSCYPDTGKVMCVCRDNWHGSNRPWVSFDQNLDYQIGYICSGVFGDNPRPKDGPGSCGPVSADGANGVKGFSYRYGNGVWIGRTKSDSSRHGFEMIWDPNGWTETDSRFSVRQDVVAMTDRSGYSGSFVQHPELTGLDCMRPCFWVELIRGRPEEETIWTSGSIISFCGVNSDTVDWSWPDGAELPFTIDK

[3] = molecular target: Neuraminidase (Influenza A virus (strain A/Wilson-Smith/1933 H1N1) (Influenza A virus(strain A/WS/1933 H1N1)), UniProt P03470); assay: Inhibition of MDCK infected Influenza A virus A/WSN/33(H1N1) neuraminidase using MU-NANA as substrate preincubated for 30 mins followed by substrate addition measured after 1 hr by spectrofluorometric method; type: cell-based, Influenza A virus (A/WSN/1933(H1N1))
[4] = Inhibition of MDCK infected Influenza A virus A/Taiwan/3446/2002(H3N2) neuraminidase using MU-NANA as substrate preincubated for 30 mins followed by substrate addition measured after 1 hr by spectrofluorometric method; type: cell-based

Row | Structure (SMILES) | IC50 [1] | IC50 [2] | IC50 [3] | IC50 [4]
1 | CC(=O)N[C@H]1C([C@H](O)[C@H](O)CO)OC(C(=O)O)=C[C@@H]1NC(=N)NC(=O)CCn1cc(-c2ccccc2)nn1 (stereo partly drawn) | 135 nM | 146 nM |  | 
2 | CC(=O)N[C@H]1C([C@H](O)[C@H](O)CO)OC(C(=O)O)=C[C@@H]1NC(=N)NC(=O)CCCCn1cc(-c2ccccc2)nn1 (stereo partly drawn) | 110 nM | 169 nM |  | 
3 | COc1ccc2cc(-c3cn(CC(=O)NC(=N)N[C@H]4C=C(C(=O)O)O[C@@H]([C@H](O)[C@H](O)CO)[C@@H]4NC(C)=O)nn3)ccc2c1 |  |  | 31 nM | 28 nM
4 | CC(=O)N[C@H]1C([C@H](O)[C@H](O)CO)OC(C(=O)O)=C[C@@H]1NC(=N)NC(=O)Cn1cc(-c2ccccc2)nn1 (stereo partly drawn) | 8 nM | 9.9 nM |  | 
5 | CC(=O)N[C@H]1[C@H]([C@H](O)[C@H](O)CO)OC(C(=O)O)=C[C@@H]1NC(=N)NC(=O)Cn1cc(-c2ccccc2N)nn1 |  |  | 12 nM | 13 nM
6 | CC(=O)N[C@H]1[C@H]([C@H](O)[C@H](O)CO)OC(C(=O)O)=C[C@@H]1NC(=N)NC(=O)Cn1cc(-c2ccc(Cl)cc2)nn1 |  |  | 15 nM | 14 nM
7 | COc1ccccc1-c1cn(CC(=O)NC(=N)N[C@H]2C=C(C(=O)O)O[C@@H]([C@H](O)[C@H](O)CO)[C@@H]2NC(C)=O)nn1 |  |  | 8 nM | 10 nM
8 | CC(=O)N[C@H]1C([C@H](O)[C@H](O)CO)OC(C(=O)O)=C[C@@H]1NC(=N)NC(=O)CCCn1cc(-c2ccccc2)nn1 (stereo partly drawn) | 228 nM | 238 nM |  | 
9 | CC(=O)N[C@H]1[C@H]([C@H](O)[C@H](O)CO)OC(C(=O)O)=C[C@@H]1NC(=N)NC(=O)Cn1cc(-c2ccc(N)cc2)nn1 |  |  | 12 nM | 13 nM
10 | CCOC(=O)c1cccc(-c2cn(CC(=O)NC(=N)N[C@H]3C=C(C(=O)O)O[C@@H]([C@H](O)[C@H](O)CO)[C@@H]3NC(C)=O)nn2)c1 |  |  | 13 nM | 19 nM
11 | CC(=O)N[C@H]1[C@H]([C@H](O)[C@H](O)CO)OC(C(=O)O)=C[C@@H]1NC(=N)NC(=O)Cn1cc(-c2ccc(F)cc2)nn1 |  |  | 29 nM | 27 nM
12 | CC(=O)N[C@H]1[C@H]([C@H](O)[C@H](O)CO)OC(C(=O)O)=C[C@@H]1NC(=N)NC(=O)CSc1ccc2ccccc2c1 |  |  | 20 nM | 25 nM
13 | CC(=O)N[C@H]1[C@H]([C@H](O)[C@H](O)CO)OC(C(=O)O)=C[C@@H]1NC(=N)NC(=O)Cn1cc(C2=CCCCC2)nn1 |  |  | 15 nM | 17 nM
14 | CC(=O)N[C@H]1[C@H]([C@H](O)[C@H](O)CO)OC(C(=O)O)=C[C@@H]1NC(=N)NC(=O)Cn1cc(-c2cccc(F)c2)nn1 |  |  | 14 nM | 17 nM
15 | CC(=O)N[C@H]1[C@H]([C@H](O)[C@H](O)CO)OC(C(=O)O)=C[C@@H]1NC(=N)NC(=O)Cn1cc(-c2ccc(C)cc2)nn1 |  |  | 14 nM | 17 nM
16 | COc1ccc(-c2cn(CC(=O)NC(=N)N[C@H]3C=C(C(=O)O)O[C@@H]([C@H](O)[C@H](O)CO)[C@@H]3NC(C)=O)nn2)cc1 |  |  | 12 nM | 17 nM
17 | CC(=O)N[C@H]1[C@H]([C@H](O)[C@H](O)CO)OC(C(=O)O)=C[C@@H]1NC(=N)NC(=O)Cn1cc(C2CCCCC2)nn1 |  |  | 2.3 nM | 2.9 nM
18 | CC(=O)N[C@H]1[C@H]([C@H](O)[C@H](O)CO)OC(C(=O)O)=C[C@@H]1NC(=N)NC(=O)Cn1cc(-c2cccc(N)c2)nn1 |  |  | 10 nM | 11 nM
19 | CC(=O)N[C@H]1[C@H]([C@H](O)[C@H](O)CO)OC(C(=O)O)=C[C@@H]1NC(=N)NC(=O)Cn1cc(-c2cccc(Cl)c2)nn1 |  |  | 9 nM | 8 nM

— ChEMBL document CHEMBL3871267, “Design and synthesis of 1,2,3-triazole-containing N-acyl zanamivir analogs as potent neuraminidase inhibitors” (Eur J Med Chem, 2016)
